# Experiments:
# [1] = biological target: T1, Human Neuropeptide Y2 Receptor (Homo sapiens, UniProt P49146); assay: Radioligand binding competition assay (RLB); settings: Table 3; human 125I-PYY (1-36) 0.02 nM, Y2 receptor membranes; read-out: Ki
# T1 construct: purchased CHEMICON HTS066M
# T1 sequence (P49146 1-381): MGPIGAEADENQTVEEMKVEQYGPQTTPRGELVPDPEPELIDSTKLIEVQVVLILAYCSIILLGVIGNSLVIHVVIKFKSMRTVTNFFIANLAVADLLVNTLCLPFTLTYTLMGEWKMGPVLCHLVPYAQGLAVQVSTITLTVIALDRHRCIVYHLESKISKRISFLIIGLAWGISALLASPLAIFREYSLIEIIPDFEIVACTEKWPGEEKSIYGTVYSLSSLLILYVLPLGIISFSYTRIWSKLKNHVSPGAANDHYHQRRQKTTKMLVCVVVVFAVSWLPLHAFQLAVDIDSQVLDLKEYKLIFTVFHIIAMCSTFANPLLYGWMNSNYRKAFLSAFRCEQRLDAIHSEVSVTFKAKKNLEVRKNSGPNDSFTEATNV
# Procedure, shortened: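 Filtration format; Y2R membrane prep 0.5 μg/well; buffer 50 mM HEPES/5 mM MgCl2/1 mM CaCl2/0.2% ovalbumin pH 7.4; 2 h RT, shaking. Harvest on PEI-soaked GF/C, ice-cold HEPES/500 mM NaCl washes, scintillation count. IC50 by nonlinear fit.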
# normal NMRI mice = assay: Effect on acute food intake in normal NMRI mice; assay type: in vivo; settings: male NMRI mice, 10 nmol/kg subcutaneously once
# Procedure, shortened: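 Male NMRI mice acclimatized in an HM-2 real-time food intake monitoring system, fasted 6 h before dark phase. Single subcutaneous dose of 10 nmol/kg peptide given 1 h before dark; n=7-8. Food intake expressed as % of vehicle group (50 mM phosphate pH7, 5% Mannitol).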
Structure (SMILES),Ki [1] [nM],Acute Food Intake 24 h [% vehicle] (normal NMRI mice)
"CC(C)CC(=O)N[C@@H](C)C(=O)N1CCC[C@H]1C(=O)N[C@@H](CCC(=O)O)C(=O)N[C@@H](CCCCNC(=O)COCCOCCNC(=O)COCCOCCNC(=O)CC[C@H](NC(=O)CCCCCCCCCCCCCCCCC(=O)O)C(=O)O)C(=O)N1CCC[C@H]1C(=O)N[C@@H](CCC(=O)O)C(=O)N[C@@H](CCC(=O)O)C(=O)N[C@@H](CC(=O)O)C(=O)N[C@@H](C)C(=O)N[C@@H](CO)C(=O)N[C@@H](CCC(=O)O)C(=O)N[C@@H](CCC(=O)O)C(=O)N[C@@H](CCC(=O)O)C(=O)N[C@@H](CC(C)C)C(=O)N[C@@H](CCC(N)=O)C(=O)N[C@@H](CCCNC(=N)N)C(=O)N[C@@H](Cc1ccc(O)cc1)C(=O)N[C@@H](Cc1ccc(O)cc1)C(=O)N[C@H](C(=O)N[C@@H](CO)C(=O)N[C@@H](CC(C)C)C(=O)N[C@@H](CCCNC(=N)N)C(=O)N[C@@H](Cc1c[nH]cn1)C(=O)N[C@@H](Cc1ccc(O)cc1)C(=O)N[C@@H](Cc1ccc(O)cc1)C(=O)N[C@@H](CC(N)=O)C(=O)N[C@@H](Cc1c[nH]c2ccccc12)C(=O)N[C@@H](CC(C)C)C(=O)N[C@H](C(=O)N[C@@H](CCCNC(=N)N)C(=O)N[C@@H](CCC(N)=O)C(=O)N[C@@H](CCCNC(=N)N)C(=O)N[C@@H](Cc1ccc(O)cc1)C(N)=O)[C@@H](C)O)C(C)C [Compound 176, N{alpha-4}-(3-methylbutanoyl)-N{epsilon-7}-[2-(2-{2-[2-(2-{2-[(4S)-4-carboxy-4-(17-carboxyheptadecanamido)butanamido]ethoxy}ethoxy)acetamido]ethoxy}ethoxy)acetamido]-[4A,7K,9E,14E,18Q,22V,28Y,30W,31L]hPYY (4-36)]",3.05,52
"CC(C)CC(=O)N[C@@H](C)C(=O)N1CCC[C@H]1C(=O)N[C@@H](CCC(=O)O)C(=O)N[C@@H](CCCCNC(=O)COCCOCCNC(=O)COCCOCCNC(=O)CC[C@H](NC(=O)CCCCCCCCCCCCCCCCC(=O)O)C(=O)O)C(=O)N1CCC[C@H]1C(=O)N[C@@H](CCC(=O)O)C(=O)N[C@@H](CCC(=O)O)C(=O)N[C@@H](CC(=O)O)C(=O)N[C@@H](C)C(=O)N[C@@H](CO)C(=O)N1CCC[C@H]1C(=O)N[C@@H](CCC(=O)O)C(=O)N[C@@H](CCC(=O)O)C(=O)N[C@H](C(=O)N[C@@H](CCC(N)=O)C(=O)N[C@@H](CCC(N)=O)C(=O)N[C@@H](Cc1ccc(O)cc1)C(=O)N[C@@H](Cc1ccc(O)cc1)C(=O)N[C@H](C(=O)N[C@@H](CO)C(=O)N[C@@H](CC(C)C)C(=O)N[C@@H](CCCNC(=N)N)C(=O)N[C@@H](Cc1c[nH]cn1)C(=O)N[C@@H](Cc1ccc(O)cc1)C(=O)N[C@@H](Cc1ccc(O)cc1)C(=O)N[C@@H](CC(N)=O)C(=O)N[C@@H](Cc1c[nH]c2ccccc12)C(=O)N[C@@H](CC(C)C)C(=O)N[C@H](C(=O)N[C@@H](CCCNC(=N)N)C(=O)N[C@@H](CCC(N)=O)C(=O)N[C@@H](CCCNC(=N)N)C(=O)N[C@@H](Cc1ccc(O)cc1)C(N)=O)[C@@H](C)O)C(C)C)[C@@H](C)O [Compound 180, N{alpha-4}-(3-methylbutanoyl)-N{epsilon-7}-[2-(2-{2-[2-(2-{2-[(4S)-4-carboxy-4-(17-carboxyheptadecanamido)butanamido]ethoxy}ethoxy)acetamido]ethoxy}ethoxy)acetamido]-[4A,7K,9E,17T,18Q,19Q,22V,28Y,30W,31L]hPYY (4-36)]",3.85,74
"CC(C)CC(=O)N[C@@H](C)C(=O)N1CCC[C@H]1C(=O)N[C@@H](CCC(=O)O)C(=O)N[C@@H](CCCCNC(=O)COCCOCCNC(=O)COCCOCCNC(=O)CC[C@H](NC(=O)CCCCCCCCCCCCCCCCC(=O)O)C(=O)O)C(=O)N1CCC[C@H]1C(=O)N[C@@H](CCC(=O)O)C(=O)N[C@@H](CCC(=O)O)C(=O)N[C@@H](CCC(=O)O)C(=O)N[C@@H](C)C(=O)N[C@@H](CO)C(=O)N1CCC[C@H]1C(=O)N[C@@H](CCC(=O)O)C(=O)N[C@@H](CCC(=O)O)C(=O)N[C@@H](CC(C)C)C(=O)N[C@@H](CCC(N)=O)C(=O)N[C@@H](CCCNC(=N)N)C(=O)N[C@@H](Cc1ccc(O)cc1)C(=O)N[C@@H](Cc1ccc(O)cc1)C(=O)N[C@H](C(=O)N[C@@H](CCC(=O)O)C(=O)N[C@@H](CC(C)C)C(=O)N[C@@H](CCCNC(=N)N)C(=O)N[C@@H](Cc1c[nH]cn1)C(=O)N[C@@H](Cc1ccc(O)cc1)C(=O)N[C@@H](Cc1ccc(O)cc1)C(=O)N[C@@H](CC(N)=O)C(=O)N[C@@H](Cc1c[nH]c2ccccc12)C(=O)N[C@@H](CC(C)C)C(=O)N[C@H](C(=O)N[C@@H](CCCNC(=N)N)C(=O)N[C@@H](CCC(N)=O)C(=O)N[C@@H](CCCNC(=N)N)C(=O)N[C@@H](Cc1ccc(O)cc1)C(N)=O)[C@@H](C)O)C(C)C [Compound 185, N{alpha-4}-(3-methylbutanoyl)-N{epsilon-7}-[2-(2-{2-[2-(2-{2-[(4S)-4-carboxy-4-(17-carboxyheptadecanamido)butanamido]ethoxy}ethoxy)acetamido]ethoxy}ethoxy)acetamido]-[4A,7K,9E,11E,18Q,22V,23E,28Y,30W,31L]hPYY (4-36)]",3.58,39
"CC[C@H](C)[C@H](NC(=O)[C@H](CCC(=O)O)NC(=O)[C@H](CCC(=O)O)NC(=O)[C@H](CCC(=O)O)NC(=O)[C@H](CO)NC(=O)[C@H](C)NC(=O)[C@H](CC(=O)O)NC(=O)[C@H](CCC(=O)O)NC(=O)[C@H](CCC(=O)O)NC(=O)[C@@H]1CCCN1C(=O)[C@H](CCCCNC(=O)COCCOCCNC(=O)COCCOCCNC(=O)CC[C@H](NC(=O)CCCCCCCCCCCCCCCCC(=O)O)C(=O)O)NC(=O)[C@H](CCC(=O)O)NC(=O)[C@@H]1CCCN1C(=O)[C@H](C)NC(=O)CC(C)C)C(=O)N[C@@H](CCC(N)=O)C(=O)N[C@@H](CCCNC(=N)N)C(=O)N[C@@H](Cc1ccc(O)cc1)C(=O)N[C@@H](Cc1ccc(O)cc1)C(=O)N[C@H](C(=O)N[C@@H](CO)C(=O)N[C@@H](CC(C)C)C(=O)N[C@@H](CCCNC(=N)N)C(=O)N[C@@H](Cc1c[nH]cn1)C(=O)N[C@@H](Cc1ccc(O)cc1)C(=O)N[C@@H](Cc1ccc(O)cc1)C(=O)N[C@@H](CC(N)=O)C(=O)N[C@@H](Cc1c[nH]c2ccccc12)C(=O)N[C@@H](CC(C)C)C(=O)N[C@H](C(=O)N[C@@H](CCCNC(=N)N)C(=O)N[C@@H](CCC(N)=O)C(=O)N[C@@H](CCCNC(=N)N)C(=O)N[C@@H](Cc1ccc(O)cc1)C(N)=O)[C@@H](C)O)C(C)C [Compound 193, N{alpha-4}-(3-methylbutanoyl)-N{epsilon-7}-[2-(2-{2-[2-(2-{2-[(4S)-4-carboxy-4-(17-carboxyheptadecanamido)butanamido]ethoxy}ethoxy)acetamido]ethoxy}ethoxy)acetamido]-[4A,7K,9E,14E,17I,18Q,22V,28Y,30W,31L]hPYY (4-36)]",3.81,57
"CC(C)CC(=O)N[C@@H](C)C(=O)N1CCC[C@H]1C(=O)N[C@@H](CCC(=O)O)C(=O)N[C@@H](CCCCNC(=O)COCCOCCNC(=O)COCCOCCNC(=O)CC[C@H](NC(=O)CCCCCCCCCCCCCCCCC(=O)O)C(=O)O)C(=O)N1CCC[C@H]1C(=O)N[C@@H](CCC(=O)O)C(=O)N[C@@H](CCC(=O)O)C(=O)N[C@@H](CC(=O)O)C(=O)N[C@@H](C)C(=O)N[C@@H](CO)C(=O)N1CCC[C@H]1C(=O)N[C@@H](CCC(=O)O)C(=O)N[C@@H](C)C(=O)N[C@@H](CC(C)C)C(=O)N[C@@H](CCC(N)=O)C(=O)N[C@@H](CCCNC(=N)N)C(=O)N[C@@H](Cc1ccc(O)cc1)C(=O)N[C@@H](Cc1ccc(O)cc1)C(=O)N[C@H](C(=O)N[C@@H](CCC(=O)O)C(=O)N[C@@H](CC(C)C)C(=O)N[C@@H](CCCNC(=N)N)C(=O)N[C@@H](Cc1c[nH]cn1)C(=O)N[C@@H](Cc1ccc(O)cc1)C(=O)N[C@@H](Cc1ccc(O)cc1)C(=O)N[C@@H](CC(N)=O)C(=O)N[C@@H](Cc1c[nH]c2ccccc12)C(=O)N[C@@H](CC(C)C)C(=O)N[C@H](C(=O)N[C@@H](CCCNC(=N)N)C(=O)N[C@@H](CCC(N)=O)C(=O)N[C@@H](CCCNC(=N)N)C(=O)N[C@@H](Cc1ccc(O)cc1)C(N)=O)[C@@H](C)O)C(C)C [Compound 195, N{alpha-4}-(3-methylbutanoyl)-N{epsilon-7}-[2-(2-{2-[2-(2-{2-[(4S)-4-carboxy-4-(17-carboxyheptadecanamido)butanamido]ethoxy}ethoxy)acetamido]ethoxy}ethoxy)acetamido]-[4A,7K,9E,16A,18Q,22V,23E,28Y,30W,31L]hPYY (4-36)]",0.75,50
